In ChEMBL document CHEMBL6096736, “Development of a Highly Selective Ferroptosis Inducer Targeting GPX4 with 2-Ethynylthiazole-4-carboxamide as Electrophilic Warhead” (J Med Chem, 2025):
Calls of active or inactive are those of the source. The calls are words filed in the database; no cut-off is given here.

Experiments:
[1] = Acute toxicity in BALB/c mouse implanted with human HT-1080 cells assessed as lung damage at 15 to 30 mg/kg, ip administered for 7 days by H and E staining based analysis; assay type: organism-based; details: in vivo, 168 h, dose 15-30 mg/kg, time 7 day
CAL-27 = assay: Cytotoxicity against human CAL-27 cells
HT-1080 [2] = assay: Induction of ferroptosis in human HT-1080 cells assessed as increase in cellular MDA level at 0.1 uM incubated for 6 hrs in presence of Fer-1; assay type: functional, cell-based
[3] = Acute toxicity in BALB/c mouse implanted with human HT-1080 cells assessed as change in AST level at 15 to 30 mg/kg, ip administered for 7 days; assay type: organism-based; details: in vivo, 168 h, dose 15-30 mg/kg, time 7 day
HT-1080 [4] = assay: Antitumor activity against human HT-1080 cells xenografted in BALB/c mouse assessed as reduction in tumor weight at 15 to 30 mg/kg, ip administered for 6 days and measured after 2 weeks; assay type: functional, organism-based; details: dose 15-30 mg/kg, time 20.0 day
HT-1080 [5] = assay: Induction of morphological changes in human HT-1080 cells assessed as appearance of round shaped mitochondria by TEM analysis; assay type: functional, cell-based
[6] = Toxicity in BALB/c mouse implanted with human HT-1080 cells assessed as change in body weight at 15 to 30 mg/kg, ip administered for 6 days and measured after 2 weeks; assay type: organism-based; details: in vivo, 480 h, dose 15-30 mg/kg, time 20 day
[7] = AUC (0 to t) in male Sprague-Dawley rat at 2 mg/kg, iv measured upto 36 hrs by LC-MS/MS analysis; assay type: ADME, organism-based; details: in vivo
[8] = Acute toxicity in BALB/c mouse implanted with human HT-1080 cells assessed as change in CREA level at 15 to 30 mg/kg, ip administered for 7 days; assay type: organism-based; details: in vivo, 168 h, dose 15-30 mg/kg, time 7 day
HT-1080 [9] = assay: Cytotoxicity against human HT-1080 cells assessed as cell viability incubated for 24 hrs by CCK-8 assay; details: HT-1080, 24 h
[10] = Acute toxicity in BALB/c mouse implanted with human HT-1080 cells assessed as change in ALP level at 15 to 30 mg/kg, ip administered for 7 days; assay type: organism-based; details: in vivo, 168 h, dose 15-30 mg/kg, time 7 day
HT-1080 [11] = assay: Induction of ferroptosis in human HT-1080 cells assessed as increase in cellular ROS level at 0.1 uM incubated for 3 hrs by DCFH-DA staining based flow cytometry analysis; assay type: functional, cell-based
HT-1080 [12] = assay: Cytotoxicity against human HT-1080 cells in presence of Z-VAD-FMK
[13] = Clearance in male Sprague-Dawley rat at 2 mg/kg, iv measured upto 36 hrs by LC-MS/MS analysis; assay type: ADME, organism-based; details: in vivo
HT-1080 [14] = assay: Induction of ferroptosis in human HT-1080 cells assessed as reduction in cell viability incubated for 24 hrs in presence of Fer-1 by CCK-8 assay; details: HT-1080, 24 h
[15] = Acute toxicity in BALB/c mouse implanted with human HT-1080 cells assessed as spleen damage at 15 to 30 mg/kg, ip administered for 7 days by H and E staining based analysis; assay type: organism-based; details: in vivo, 168 h, dose 15-30 mg/kg, time 7 day
[16] = Acute toxicity in BALB/c mouse implanted with human HT-1080 cells assessed as kidney damage at 15 to 30 mg/kg, ip administered for 7 days by H and E staining based analysis; assay type: organism-based; details: in vivo, 168 h, dose 15-30 mg/kg, time 7 day
HT-1080 [17] = assay: Cytotoxicity against human HT-1080 cells assessed as cell survival incubated for 24 hrs in presence of DFO by CCK-8 assay; details: HT-1080, 24 h
[18] = Acute toxicity in BALB/c mouse implanted with human HT-1080 cells assessed as change in ALT level at 15 to 30 mg/kg, ip administered for 7 days; assay type: organism-based; details: in vivo, 168 h, dose 15-30 mg/kg, time 7 day
HepG2 = assay: Cytotoxicity against human HepG2 cells
HT-1080 [19] = assay: Induction of ferroptosis in human HT-1080 cells assessed as increase in cellular LPO level at 0.1 uM incubated for 3 hrs by BIODPY-C11 probe based flow cytometry analysis; assay type: functional, cell-based
[20] = Half life in male Sprague-Dawley rat at 20 mg/kg, po measured upto 36 hrs by LC-MS/MS analysis; assay type: ADME, organism-based; details: in vivo
HT-1080 [21] = assay: Antitumor activity against human HT-1080 cells xenografted in BALB/c mouse assessed as tumor growth inhibition at 30 mg/kg, ip administered for 6 days and measured after 2 weeks; assay type: functional; details: HT-1080, 480 h, time 20 day, read-out: TGI
HT-1080 [22] = assay: Induction of morphological changes in human HT-1080 cells assessed as […] of mitochondria cristas by TEM analysis; assay type: functional, cell-based
[23] = Half life in male Sprague-Dawley rat at 2 mg/kg, iv measured upto 36 hrs by LC-MS/MS analysis; assay type: ADME, organism-based; details: in vivo
[24] = AUC (0 to t) in male Sprague-Dawley rat at 20 mg/kg, po measured upto 36 hrs by LC-MS/MS analysis; assay type: ADME, organism-based; details: in vivo
[25] = Acute toxicity in BALB/c mouse implanted with human HT-1080 cells assessed as heart damage at 15 to 30 mg/kg, ip administered for 7 days by H and E staining based analysis; assay type: organism-based; details: in vivo, 168 h, dose 15-30 mg/kg, time 7 day
HT-1080 [26] = assay: Induction of ferroptosis in human HT-1080 cells assessed as increase in cellular MDA level at 0.1 uM incubated for 6 hrs; assay type: functional, cell-based
[27] = Cmax in male Sprague-Dawley rat at 20 mg/kg, po measured upto 36 hrs by LC-MS/MS analysis; assay type: ADME, organism-based; details: in vivo
4T1 = assay: Cytotoxicity against mouse 4T1 cells
[28] = Acute toxicity in BALB/c mouse implanted with human HT-1080 cells assessed as change in UREA level at 15 to 30 mg/kg, ip administered for 7 days; assay type: organism-based; details: in vivo, 168 h, dose 15-30 mg/kg, time 7 day
[29] = Acute toxicity in BALB/c mouse implanted with human HT-1080 cells assessed as liver damage at 15 to 30 mg/kg, ip administered for 7 days by H and E staining based analysis; assay type: organism-based; details: in vivo, 168 h, dose 15-30 mg/kg, time 7 day
[30] = Clearance in male Sprague-Dawley rat at 20 mg/kg, po measured upto 36 hrs by LC-MS/MS analysis; assay type: ADME, organism-based; details: in vivo
[31] = Cmax in male Sprague-Dawley rat at 2 mg/kg, iv measured upto 36 hrs by LC-MS/MS analysis; assay type: ADME, organism-based; details: in vivo
[32] = Oral bioavailability in male Sprague-Dawley rat at 20 mg/kg measured upto 36 hrs by LC-MS/MS analysis; assay type: ADME, organism-based; details: in vivo
[33] = Cytotoxicity against human LO2 cells; assay type: toxicity, cell-based, L02
HT-1080 [34] = assay: Antitumor activity against human HT-1080 cells xenografted in BALB/c mouse assessed as tumor growth inhibition at 15 mg/kg, ip administered for 6 days and measured after 2 weeks; assay type: functional; details: HT-1080, 480 h, time 20 day, read-out: TGI
HT-1080 [35] = assay: Cytotoxicity against human HT-1080 cells assessed as cell survival incubated for 24 hrs by CCK-8 assay; details: HT-1080, 24 h
MCF7 = assay: Cytotoxicity against human MCF7 cells

SMILES: C#Cc1nc(C(=O)N(c2ccc(-c3cnco3)cc2)[C@@H](C(=O)NC(C)(C)C)c2csc3ccccc23)cs1
- Activity [1]: Non-toxic
- IC50 (CAL-27): 2680 nM
- Activity (HT-1080 [2]): Weak_effect
- Activity [3]: Non-toxic
- Activity (HT-1080 [4]): Active
- Activity (HT-1080 [5]): Active
- Activity [6]: Non-toxic
- AUC(0-t) at 36 h [7]: 122 ng·h/mL
- Activity [8]: Non-toxic
- IC50 (HT-1080 [9]): 3 nM
- Activity [10]: Non-toxic
- Activity (HT-1080 [11]): Active
- IC50 (HT-1080 [12]): 0.2 nM
- clearance [13]: 282 mL/min/kg
- IC50 (HT-1080 [14]): 7480 nM
- Activity [15]: Non-toxic
- Activity [16]: Non-toxic
- IC50 (HT-1080 [17]): 3950 nM
- Activity [18]: Non-toxic
- IC50 (HepG2): 56 nM
- Activity (HT-1080 [19]): Active
- half-life [20]: 2.37 h
- inhibition in vivo at 30 mg/kg (HT-1080 [21]): 49.4%
- Activity (HT-1080 [22]): Active
- half-life [23]: 1.05 h
- AUC(0-t) at 36 h [24]: 79.4 ng·h/mL
- Activity [25]: Non-toxic
- Activity (HT-1080 [26]): Active
- Cmax [27]: 20.8 ng/mL
- IC50 (4T1): 89 nM
- Activity [28]: Non-toxic
- Activity [29]: Non-toxic
- CL/F [30]: 5670 mL/min/kg
- Cmax [31]: 271 ng/mL
- bioavailability [32]: 6.67%
- IC50 [33]: 5140 nM
- inhibition in vivo at 15 mg/kg (HT-1080 [34]): 36.5%
- IC50 (HT-1080 [35]): 22 nM
- IC50 (MCF7): 451 nM
